# Measured values taken from patent publication US20240360178A1, “MACROCYCLIC IMMUNOMODULATORS” (Bristol-Myers Squibb Company, priority 2021, published 2024).
# Positions of bridges follow the written chain, without caps; N, C: chain ends. Non-standard residues stand in square brackets, D forms with d. Residues, ends and D or L forms follow the SMILES beside them. *: point of attachment. Bip = N[C@@H](Cc1ccc(-c2ccccc2)cc1)C(=O)O; NMeF = CN[C@@H](Cc1ccccc1)C(=O)O; dHyp = O=C(O)[C@H]1C[C@H](O)CN1; Cit = NC(=O)NCCC[C@H](N)C(=O)O; Ala(CN) = N#CC[C@H](N)C(=O)O; dPip = O=C(O)[C@H]1CCCCN1; Carboxymethyl = O=C(O)C*; NMeA = CN[C@@H](C)C(=O)O; Orn = NCCC[C@H](N)C(=O)O; Dab = NCC[C@H](N)C(=O)O; Nva = CCC[C@H](N)C(=O)O; Dap = NC[C@H](N)C(=O)O; Sar = CNCC(=O)O
# Biological target: T1, human PD-1 (Jurkat-PD-1 cells) / PE-labeled human PD-L1-Ig (Homo sapiens, UniProt Q15116)
# T1 construct: expressed in transfected cells; host or cells: Jurkat cell line over-expressing human PD-1
# T1 sequence (Q15116 25-288): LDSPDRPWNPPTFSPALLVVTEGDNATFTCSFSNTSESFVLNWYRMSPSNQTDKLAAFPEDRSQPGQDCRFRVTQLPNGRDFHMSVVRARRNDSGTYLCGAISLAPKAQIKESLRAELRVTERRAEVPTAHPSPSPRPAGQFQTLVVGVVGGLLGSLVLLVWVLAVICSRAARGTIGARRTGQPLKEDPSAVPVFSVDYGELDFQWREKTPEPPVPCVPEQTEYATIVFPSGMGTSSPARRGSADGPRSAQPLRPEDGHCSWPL
# Assay: Jurkat-PD-1 Cell Binding High-Content Screening Assay (CBA); Jurkat hPD1-PDL1 assay
# Settings: Jurkat cell line over-expressing human PD-1; PE-labeled PD-L1-Ig 20 nM final; compound incubated 2 hours at 37° C.; read-out: Jurkat HPD1-PDL1 IC50
# In short: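 Binding of phycoerythrin-conjugated PD-L1-Ig (20 nM final) to PD-1-overexpressing Jurkat cells was read by high-content imaging. Cells in DMEM/10% FCS were exposed to compound for 2 hours at 37° C before labeled ligand was added.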
row,Structure (SMILES),IC50
1,CC(C)C[C@@H]1NC(=O)[C@H](CCCNC(=N)N)NC(=O)[C@H](Cc2ccccc2)N(C)C(=O)[C@H](C)N(C)C(=O)[C@H](C(C)C)NC(=O)[C@H](Cc2ccc(-c3ccccc3)cc2)NC(=O)[C@H](C(C)C)NC(=O)[C@H](Cc2c[nH]c3ccccc23)NC(=O)[C@H](CC(=O)O)NC(=O)[C@H](Cc2ccc(O)cc2)NC(=O)[C@H](Cc2ccccc2)NC(=O)CSC[C@@H](C(=O)NCC(N)=O)NC(=O)[C@H](CO)NC(=O)[C@H](C(C)C)NC1=O [Example 1206] ({CH2CO}-FYDWV[Bip]V[NMeA][NMeF]RLVSCG-NH2; thioether N-14),450 nM
2,CC(C)C[C@@H]1NC(=O)[C@H](CCN)NC(=O)[C@H](Cc2ccccc2)N(C)C(=O)[C@H](C)N(C)C(=O)[C@H](CCCNC(=N)N)NC(=O)[C@H](Cc2ccc(-c3ccccc3)cc2)NC(=O)[C@H](C(C)C)NC(=O)[C@H](Cc2c[nH]c3ccccc23)NC(=O)[C@H](CC(=O)O)NC(=O)[C@H](Cc2ccc(O)cc2)NC(=O)[C@H](CCC(N)=O)NC(=O)CSC[C@@H](C(=O)NCC(N)=O)NC(=O)[C@H](CO)NC(=O)[C@H](C(C)C)NC1=O [Example 1309] ({CH2CO}-QYDWV[Bip]R[NMeA][NMeF][Dab]LVSCG-NH2; thioether N-14),340 nM
3,CC(C)C[C@@H]1NC(=O)[C@H](Cc2c[nH]c3ccccc23)NC(=O)[C@H](CC(=O)O)NC(=O)[C@H](Cc2ccc(O)cc2)NC(=O)[C@H](Cc2ccccc2)NC(=O)CSC[C@@H](C(=O)N[C@@H](C)C(N)=O)NC(=O)[C@H](CO)NC(=O)[C@H](C(C)C)NC(=O)[C@H](CC(C)C)NC(=O)[C@H](CC(N)=O)NC(=O)[C@H]2CCCCN2C(=O)[C@H]2CCCN2C(=O)[C@H](C(C)C)NC(=O)[C@H](Cc2ccc(-c3ccccc3)cc2)NC1=O [Example 1006] ({CH2CO}-FYDWL[Bip]V[dP][dPip]NLVSCA-NH2; thioether N-14),40 nM
4,CC(C)C[C@@H]1NC(=O)[C@H](CCCNC(=N)N)NC(=O)[C@H](Cc2ccccc2)N(C)C(=O)[C@H](C)N(C)C(=O)[C@H](CCCNC(N)=O)NC(=O)[C@H](Cc2ccc(-c3ccccc3)cc2)NC(=O)[C@H](C(C)C)NC(=O)[C@H](Cc2c[nH]c3ccccc23)NC(=O)[C@H](CC(=O)O)NC(=O)[C@H](Cc2ccc(O)cc2)NC(=O)[C@H](CC(N)=O)NC(=O)CSC[C@@H](C(=O)N[C@@H](C)C(N)=O)NC(=O)[C@H](CO)NC(=O)[C@H](C(C)C)NC1=O [Example 1377] ({CH2CO}-NYDWV[Bip][Cit][NMeA][NMeF]RLVSCA-NH2; thioether N-14),40 nM
5,CC(C)C[C@@H]1NC(=O)[C@H](CCCNC(=N)N)NC(=O)[C@H](Cc2ccccc2)N(C)C(=O)[C@H](C)N(C)C(=O)[C@H](CCCNC(=N)N)NC(=O)[C@H](Cc2ccc(-c3ccccc3)cc2)NC(=O)[C@H](C(C)C)NC(=O)[C@H](Cc2c[nH]c3ccccc23)NC(=O)[C@H](CC(=O)O)NC(=O)[C@H](CCCCN)NC(=O)[C@H](Cc2ccccc2)NC(=O)CSC[C@@H](C(=O)NCC(N)=O)NC(=O)[C@H](CO)NC(=O)[C@H](C(C)C)NC1=O [Example 1213] ({CH2CO}-FKDWV[Bip]R[NMeA][NMeF]RLVSCG-NH2; thioether N-14),590 nM
6,CC(C)C[C@@H]1NC(=O)[C@H](Cc2c[nH]c3ccccc23)NC(=O)[C@H](CC#N)NC(=O)[C@H](Cc2ccc(O)cc2)NC(=O)[C@H](Cc2ccccc2)NC(=O)CSC[C@@H](C(=O)N[C@@H](C)C(N)=O)NC(=O)[C@H](CO)NC(=O)[C@H](C(C)C)NC(=O)[C@H](CC(C)C)NC(=O)[C@H](CC(N)=O)NC(=O)[C@H]2CCCN2C(=O)[C@H](C)N(C)C(=O)[C@H](C(C)C)NC(=O)[C@H](Cc2ccc(-c3ccccc3)cc2)NC1=O [Example 1429] ({CH2CO}-FY[Ala(CN)]WL[Bip]V[NMeA][dP]NLVSCA-NH2; thioether N-14),10 nM
7,CC(C)C[C@@H]1NC(=O)[C@H](CCCNC(=N)N)NC(=O)[C@H](Cc2ccccc2)N(C)C(=O)[C@H](C)N(C)C(=O)[C@H](CCCN)NC(=O)[C@H](Cc2ccc(-c3ccccc3)cc2)NC(=O)[C@H](C(C)C)NC(=O)[C@H](Cc2c[nH]c3ccccc23)NC(=O)[C@H](CC(=O)O)NC(=O)[C@H](Cc2ccc(O)cc2)NC(=O)[C@H](Cc2ccccc2)NC(=O)CSC[C@@H](C(=O)NCC(N)=O)NC(=O)[C@H](CO)NC(=O)[C@H](C(C)C)NC1=O [Example 1243] ({CH2CO}-FYDWV[Bip][Orn][NMeA][NMeF]RLVSCG-NH2; thioether N-14),60 nM
8,CC(C)C[C@@H]1NC(=O)[C@H](Cc2c[nH]c3ccccc23)NC(=O)[C@H](CC(=O)O)NC(=O)[C@H](Cc2ccc(O)cc2)NC(=O)[C@H](Cc2ccccc2)NC(=O)CSC[C@@H](C(=O)N[C@@H](C)C(N)=O)NC(=O)[C@H](CO)NC(=O)[C@H](C(C)C)NC(=O)[C@H](CC(C)C)NC(=O)[C@H](CC(N)=O)NC(=O)[C@H]2C[C@H](O)CN2C(=O)[C@H](C)N(C)C(=O)[C@H](C(C)C)NC(=O)[C@H](Cc2ccc(-c3ccccc3)cc2)NC1=O [Example 1054] ({CH2CO}-FYDWL[Bip]V[NMeA][dHyp]NLVSCA-NH2; thioether N-14),120 nM
9,CC(C)C[C@@H]1NC(=O)[C@H](Cc2c[nH]c3ccccc23)NC(=O)[C@H](CC(=O)O)NC(=O)[C@H](Cc2ccc(O)cc2)NC(=O)[C@H](Cc2ccccc2)NC(=O)CSC[C@@H](C(=O)N[C@@H](CN)C(N)=O)NC(=O)[C@H](CO)NC(=O)[C@H](C(C)C)NC(=O)[C@H](CC(C)C)NC(=O)[C@H](CC(N)=O)NC(=O)CN(C)C(=O)[C@H](C)N(C)C(=O)[C@H](C(C)C)NC(=O)[C@H](Cc2ccc(-c3ccccc3)cc2)NC1=O [Example 1168] ({CH2CO}-FYDWL[Bip]V[NMeA][Sar]NLVSC[Dap]-NH2; thioether N-14),930 nM
10,CC(C)C[C@@H]1NC(=O)[C@H](Cc2c[nH]c3ccccc23)NC(=O)[C@H](CC(=O)O)NC(=O)[C@H](Cc2ccc(O)cc2)NC(=O)[C@H](Cc2ccccc2)NC(=O)CSC[C@@H](C(=O)NCC(N)=O)NC(=O)[C@H]([C@@H](C)O)NC(=O)[C@H](C(C)C)NC(=O)[C@H](CC(C)C)NC(=O)[C@H](CC(N)=O)NC(=O)[C@H]2CCCN2C(=O)[C@H](CN)NC(=O)[C@H](C(C)C)NC(=O)[C@H](Cc2ccc(-c3ccccc3)cc2)NC1=O [Example 1404] ({CH2CO}-FYDWL[Bip]V[Dap][dP]NLVTCG-NH2; thioether N-14),390 nM
11,CC(C)C[C@@H]1NC(=O)[C@H](Cc2c[nH]c3ccccc23)NC(=O)[C@H](CC(=O)O)NC(=O)[C@H](Cc2ccc(OCC(=O)O)cc2)NC(=O)[C@H](CC(N)=O)NC(=O)CSC[C@@H](C(=O)N[C@@H](C)C(N)=O)NC(=O)[C@H](CO)NC(=O)[C@H](C(C)C)NC(=O)[C@H](CC(C)C)NC(=O)[C@H](CC(N)=O)NC(=O)[C@H]2CCCN2C(=O)[C@H](C)N(C)C(=O)[C@H](C(C)C)NC(=O)[C@H](Cc2ccc(-c3ccccc3)cc2)NC1=O [Example 1042] ({CH2CO}-NY(Carboxymethyl)DWL[Bip]V[NMeA][dP]NLVSCA-NH2; thioether N-14),70 nM
12,CC(C)C[C@@H]1NC(=O)[C@H](CC(N)=O)NC(=O)CN(C)C(=O)[C@H](C)N(C)C(=O)[C@H](C(C)C)NC(=O)[C@H](Cc2ccc(-c3ccccc3)cc2)NC(=O)[C@H](CC(C)C)NC(=O)[C@H](Cc2c[nH]c3ccccc23)NC(=O)[C@H](CC(=O)O)NC(=O)[C@H](Cc2ccc(O)cc2)NC(=O)[C@H](Cc2ccccc2)NC(=O)CSC[C@@H](C(=O)NCC(N)=O)NC(=O)[C@H](CO)NC(=O)[C@H](CCCCN)NC1=O [Example 1104] ({CH2CO}-FYDWL[Bip]V[NMeA][Sar]NLKSCG-NH2; thioether N-14),320 nM
13,CC(C)C[C@@H]1NC(=O)[C@H](Cc2c[nH]c3ccccc23)NC(=O)[C@H](CC(=O)O)NC(=O)[C@H](Cc2ccc(O)cc2)NC(=O)[C@H](CC(N)=O)NC(=O)CSC[C@@H](C(=O)N[C@@H](C)C(N)=O)NC(=O)[C@H]([C@@H](C)O)NC(=O)[C@H](C(C)C)NC(=O)[C@H](CC(C)C)NC(=O)[C@H](CC(N)=O)NC(=O)[C@H]2CCCN2C(=O)[C@H](CCCN)NC(=O)[C@H](C(C)C)NC(=O)[C@H](Cc2ccc(-c3ccccc3)cc2)NC1=O [Example 1426] ({CH2CO}-NYDWL[Bip]V[Orn][dP]NLVTCA-NH2; thioether N-14),220 nM
14,CCC[C@@H]1NC(=O)[C@H](Cc2c[nH]c3ccccc23)NC(=O)[C@H](CC(=O)O)NC(=O)[C@H](Cc2ccc(O)cc2)NC(=O)[C@H](Cc2ccccc2)NC(=O)CSC[C@@H](C(=O)NCC(N)=O)NC(=O)[C@H](CO)NC(=O)[C@H](C(C)C)NC(=O)[C@H](CC(C)C)NC(=O)[C@H](CCCNC(=N)N)NC(=O)[C@H](Cc2ccccc2)N(C)C(=O)[C@H](C)N(C)C(=O)[C@H](CCCNC(=N)N)NC(=O)[C@H](Cc2ccc(-c3ccccc3)cc2)NC1=O [Example 1335] ({CH2CO}-FYDW[Nva][Bip]R[NMeA][NMeF]RLVSCG-NH2; thioether N-14),140 nM
15,CC(C)C[C@@H]1NC(=O)[C@H](Cc2c[nH]c3ccccc23)NC(=O)[C@H](CC(=O)O)NC(=O)[C@H](Cc2ccc(O)cc2)NC(=O)[C@H](Cc2ccccc2)NC(=O)CSC[C@@H](C(=O)N[C@@H](C)C(N)=O)NC(=O)[C@H](CO)NC(=O)[C@H](C(C)C)NC(=O)[C@H](CC(C)C)NC(=O)[C@H](CCN)NC(=O)[C@H]2CCCN2C(=O)[C@H](C)N(C)C(=O)[C@H](C(C)C)NC(=O)[C@H](Cc2ccc(-c3ccccc3)cc2)NC1=O [Example 1397] ({CH2CO}-FYDWL[Bip]V[NMeA][dP][Dab]LVSCA-NH2; thioether N-14),40 nM
16,CC(C)C[C@@H]1NC(=O)[C@H](Cc2c[nH]c3ccccc23)NC(=O)[C@H](CC(=O)O)NC(=O)[C@H](Cc2ccc(O)cc2)NC(=O)[C@H](Cc2ccccc2)NC(=O)CSC[C@@H](C(=O)N[C@@H](C)C(N)=O)NC(=O)[C@H]([C@@H](C)O)NC(=O)[C@H](C(C)C)NC(=O)[C@H](CC(C)C)NC(=O)[C@H](CCN)NC(=O)[C@H]2CCCN2C(=O)[C@H](CCN)NC(=O)[C@H](C(C)C)NC(=O)[C@H](Cc2ccc(-c3ccccc3)cc2)NC1=O [Example 1416] ({CH2CO}-FYDWL[Bip]V[Dab][dP][Dab]LVTCA-NH2; thioether N-14),240 nM
